# Measurements reported in patent US10683333B2, “Islet amyloid polypeptides with improved solubility” (The Research Foundation for The State University of New York, priority 2014, dated 2020).
# Entries after “also recorded” stand apart in the source; their conditions may differ. Where a SMILES comes first, the peptide text is derived from it. Bridges are numbered along the chain shown (N, C = ends).
# Experiments:
# [1] = format: physicochemical; conditions: pH 7.4
# Procedure: Dry peptides were dissolved into PBS buffer at pH 7.4 at different initial concentrations, and were incubated for 7 days at 25° C. without stirring. Each sample was then centrifuged using a Beckman Coulter Microfuge 22R Centrifuge at 24° C. for 20 min. The relative centrifugal force used was 1.75×10^4 g. Solubility of each sample was approximated by measuring the absorbance of the corresponding supernatant at 280 nm measured using a Beckman Coulter DU 730 UV/Vis Spectrophotometer. All of the peptides contain a single Tyr, 3 Phe and a disulfide bond, thus their extinction coefficients at 280 nm are very similar. The solubility of PM and the mutant hIAPP polypeptides of the present disclosure was analyzed and compared at pH 7.4. Each peptide was incubated in buffer for 7 days at three different concentrations (100 μM, 500 μM and 1 mM) and the solution was then centrifuged. The apparent solubility was represented by the absorbance of the supernatant of each sample measured at 280 nm. […] Additionally, the supernatant of QM sample has a higher absorbance, 0.162, than that of TM-a and PM, 0.103 and 0.112 respectively (FIG. 4A). […] At 1 mM, the absorbance of the soluble fraction of TM-a, TM-b and QM were 1.23, 1.49, and 1.33 respectively, while that value of PM was only 0.354. In comparison, the absorbance of the supernatant of the 1 mM hIAPP was 0.109 (FIGS. 4A-C).
# [2] = Thioflavin-T fluorescence assay of amyloid formation kinetics; format: physicochemical; conditions: 20 mM Tris-HCl pH 7.4, 25° C., without stirring
# Procedure: Each peptide was dissolved into 100% hexafluoroisoproponal (HFIP) to make a 1.6 mM stock solution. Stock solutions were filtered using […] Acrodisc syringe filter with a GHP membrane and the required amount of peptide was lyophilized overnight to remove HFIP. Dry peptide was dissolved into the appropriate buffer for the fluorescence assays. Thioflavin-T binding assays, conducted without HFIP or stirring at 25° C., were utilized to monitor amyloid formation kinetics. Fluorescence measurements were performed using a Beckman Coulter DTX 880 plate reader with a multimode detector using an excitation wavelength of 430 nm and an emission wavelength of 485 nm. Samples were prepared by dissolving dry peptide into Tris-HCl buffer and thioflavin-T solution immediately before the measurement. The final concentrations were 16 μM hIAPP or 160 μM of each analog and 32 μM thioflavin-T in 20 mM Tris-HCl (pH 7.4). After creating mutant hIAPP polypeptides of the present disclosure, applicants tested the propensity of the different analogs to form amyloid at pH 7.4 using thioflavin-T fluorescence assays. […] Amyloid formation follows a sigmoidal time course consisting of a lag phase in which few, if any, fibrils are formed, followed by a growth phase and a saturation phase in which amyloid fibrils are in equilibrium with soluble peptide.
# [3] = Transmission electron microscopy (TEM) of samples at end of kinetic experiments; format: physicochemical; conditions: aliquots at end of kinetic experiment; 16 μM hIAPP, 160 μM analogs, pH 7.4
# Procedure: TEM images were collected at the Life Science Microscopy Center at the State University of New York at Stony Brook. 15 μL aliquots of the samples used for fluorescence assays were removed at the end of each kinetic experiment, blotted on a carbon-coated 200-mesh copper grid for 1 min and then negatively stained with saturated uranyl acetate for 1 min. Samples were further analyzed using TEM and CD.
# [4] = Far-UV circular dichroism (CD) of aliquots at end of kinetic experiments; format: physicochemical; conditions: aliquots at end of kinetic experiment, 25° C.
# Procedure: Far-UV CD experiments were performed on an Applied Photophysics Chirascan CD spectrophotometer at 25° C. Aliquots from the kinetic experiments were removed at the end of each experiment and the spectra were recorded as the average of three repeats over a range of 190-260 nm, at 1 nm intervals. A 0.1 cm quartz cuvette was used and a background spectrum was subtracted from the data. Samples were further analyzed using TEM and CD.
fibril morphology in TEM images [3],absorbance of the supernatant at 280 nm (apparent solubility) [1],time for amyloid formation to reach the saturation phase ([2]; 16 μM hIAPP) [h],secondary structure by CD spectrum [4],Structure (SMILES),solubility at neutral pH compared with PM / wild-type hIAPP [1],"amyloid formation monitored by thioflavin-T fluorescence ([2]; 160 μM peptide, about 140 hrs)"
,,,,CC(C)C[C@H](NC(=O)[C@H](CCCNC(=N)N)NC(=O)[C@H](CCC(N)=O)NC(=O)[C@@H](NC(=O)[C@H](C)NC(=O)[C@@H]1CSSC[C@H](NC(=O)[C@@H](N)CCCCN)C(=O)N[C@@H](CC(N)=O)C(=O)N[C@@H]([C@@H](C)O)C(=O)N[C@@H](C)C(=O)N[C@@H]([C@@H](C)O)C(=O)N1)[C@@H](C)O)C(=O)N[C@@H](C)C(=O)N[C@@H](CC(N)=O)C(=O)N[C@@H](Cc1ccccc1)C(=O)N[C@@H](CC(C)C)C(=O)N[C@H](C(=O)N[C@@H](CCCNC(=N)N)C(=O)N[C@@H](CO)C(=O)N[C@@H](CO)C(=O)N[C@@H](CC(N)=O)C(=O)N[C@@H](CC(N)=O)C(=O)N[C@@H](Cc1ccccc1)C(=O)NCC(=O)N[C@@H](C)C(=O)N1CCC[C@H]1C(=O)N[C@@H](CC(C)C)C(=O)N[C@@H](CO)C(=O)N[C@@H](CO)C(=O)N[C@H](C(=O)N[C@@H](CC(N)=O)C(=O)N[C@H](C(=O)NCC(=O)N[C@@H](CO)C(=O)N[C@@H](CC(N)=O)C(=O)N[C@H](C(=O)N[C@@H](Cc1ccc(O)cc1)C(N)=O)[C@@H](C)O)C(C)C)[C@@H](C)O)C(C)C [DM] (H-KCNTATCATQRLANFLVRSSNNFGAPLSSTNVGSNTY-NH2; disulfide 2-7; N-terminus assumed),much better solubility at neutral pH than PM,
no fibrils were found,,,,CC[C@H](C)[C@H](NC(=O)[C@@H]1CCCN1C(=O)CNC(=O)[C@H](Cc1ccccc1)NC(=O)[C@H](CC(N)=O)NC(=O)[C@H](CC(N)=O)NC(=O)[C@H](CO)NC(=O)[C@H](CO)NC(=O)[C@H](Cc1c[nH]cn1)NC(=O)[C@@H](NC(=O)[C@H](CC(C)C)NC(=O)[C@H](Cc1ccccc1)NC(=O)[C@H](CC(N)=O)NC(=O)[C@H](C)NC(=O)[C@H](CC(C)C)NC(=O)[C@H](CCCNC(=N)N)NC(=O)[C@H](CCC(N)=O)NC(=O)[C@@H](NC(=O)[C@H](C)NC(=O)[C@@H]1CSSC[C@H](NC(=O)[C@@H](N)CCCCN)C(=O)N[C@@H](CC(N)=O)C(=O)N[C@@H]([C@@H](C)O)C(=O)N[C@@H](C)C(=O)N[C@@H]([C@@H](C)O)C(=O)N1)[C@@H](C)O)C(C)C)C(=O)N[C@@H](CC(C)C)C(=O)N1CCC[C@H]1C(=O)N1CCC[C@H]1C(=O)N[C@H](C(=O)N[C@@H](CC(N)=O)C(=O)N[C@H](C(=O)NCC(=O)N[C@@H](CO)C(=O)N[C@@H](CC(N)=O)C(=O)N[C@H](C(=O)N[C@@H](Cc1ccc(O)cc1)C(N)=O)[C@@H](C)O)C(C)C)[C@@H](C)O [PM],,flat fluorescence curves; also recorded: do not form amyloid
typical amyloid fibril morphology,0.109,≤ 40,β-sheet structure,CC[C@H](C)[C@H](NC(=O)[C@H](C)NC(=O)CNC(=O)[C@H](Cc1ccccc1)NC(=O)[C@H](CC(N)=O)NC(=O)[C@H](CC(N)=O)NC(=O)[C@H](CO)NC(=O)[C@H](CO)NC(=O)[C@H](Cc1c[nH]cn1)NC(=O)[C@@H](NC(=O)[C@H](CC(C)C)NC(=O)[C@H](Cc1ccccc1)NC(=O)[C@H](CC(N)=O)NC(=O)[C@H](C)NC(=O)[C@H](CC(C)C)NC(=O)[C@H](CCCNC(=N)N)NC(=O)[C@H](CCC(N)=O)NC(=O)[C@@H](NC(=O)[C@H](C)NC(=O)[C@@H]1CSSC[C@H](NC(=O)[C@@H](N)CCCCN)C(=O)N[C@@H](CC(N)=O)C(=O)N[C@@H]([C@@H](C)O)C(=O)N[C@@H](C)C(=O)N[C@@H]([C@@H](C)O)C(=O)N1)[C@@H](C)O)C(C)C)C(=O)N[C@@H](CC(C)C)C(=O)N[C@@H](CO)C(=O)N[C@@H](CO)C(=O)N[C@H](C(=O)N[C@@H](CC(N)=O)C(=O)N[C@H](C(=O)NCC(=O)N[C@@H](CO)C(=O)N[C@@H](CC(N)=O)C(=O)N[C@H](C(=O)N[C@@H](Cc1ccc(O)cc1)C(N)=O)[C@@H](C)O)C(C)C)[C@@H](C)O [hIAPP],,
